Among the data in ChEMBL document CHEMBL3507680, “University of Dundee, Gates Library screen for HepG2 cell viability” are cytotoxicity values, retold here.

A short description of the data set: Human HepG2 cell viability assay in 384 well format. The data set is classed as toxicity, cell-based. Also noted: dose 125 nL, time 70.5 hour; cytotoxicity at 70.5 h: concentration not given beside the values. Conditions: HepG2 cells, read-out: Inhibition.

As for `COC(C(=O)NC1CC1)c1ccccc1` (centres undefined), the cytotoxicity at 70.5 h is 28.7%. Consider `Cc1nc(CN2C(=O)C[C@@H]3[C@@H]2CCN3S(C)(=O)=O)cs1`, for which the cytotoxicity at 70.5 h was -4.41%.

Regarding `COc1nn(C)c2c1CCCN(C(=O)c1ccc(C)c(F)c1)C2`, the cytotoxicity at 70.5 h is -101%. As to `O=C1[C@H]2CN(c3ncccn3)C[C@H]2CN1CC1CC1`, the cytotoxicity at 70.5 h is -124%. Consider `COc1nn(C)c2c1CCCN(C(=O)COc1ccccc1)C2`, for which the cytotoxicity at 70.5 h was -104%.

For `Cn1cc(C(=O)NCc2cn3c(n2)CN(Cc2ccncc2)CC3)cn1`, the cytotoxicity at 70.5 h was -7.44%. On to `COc1nn(C)c2c1CCCN(C(=O)c1cccn1C)C2`, for which the cytotoxicity at 70.5 h is -41.9%. Then `COc1nn(C)c2c1CCCN(C(=O)c1ccc[nH]1)C2`, with -99.5%; and `CCCS(=O)(=O)N1CCC2(CC1)CC(Nc1ncccn1)CO2` (centres undefined), with -99.6%; and `CCC1=N[C@@]2(CC[C@@H]3CN(C(=O)Nc4ccccc4)C[C@@H]32)C(=O)N1C`, with -85.8%. As to `COCCC(=O)N1CCC2(CCN(Cc3ccc(OC)c(F)c3)C2)C1` (centres undefined), the cytotoxicity at 70.5 h was -93.9%. In the case of `COCC1c2c(cnn2C)CCN1Cc1ccc(C)o1` (centres undefined), the cytotoxicity at 70.5 h was -18.3%. Turning to `C[C@H]1C[C@@H]2CCN(C(=O)c3ccncc3)C[C@H]2O1`, the cytotoxicity at 70.5 h was -2.95%.

For the compound `CC(=O)N1CCN(C(=O)NC(C)C)CC2(CC(=O)N(C)C2)C1` (centres undefined), the cytotoxicity at 70.5 h is -13.5%. For the compound `Cn1nc(C(=O)NCc2cccnc2)c2c1CCS(=O)(=O)C2`, the cytotoxicity at 70.5 h came out at 24.8%.

As for `Cn1nc(C(=O)NCc2ccc(F)cc2)c2c1CCS(=O)(=O)C2`, the cytotoxicity at 70.5 h is -6.3%. In the case of `CCC1=NC(SCC(=O)c2ccccc2)c2cc(CC)sc2N1` (centres undefined), the cytotoxicity at 70.5 h was found to be 13.5%.

As for `Cc1c(S(=O)(=O)NC2CC2)cc2c(C)cc(=O)n3c2c1CCC3`, the cytotoxicity at 70.5 h came out at 0.953%. Then `Cc1nnc(SCC(=O)NCc2ccc3c(c2)CCC(=O)N3)s1`, with 2.74%. On to `Cn1c(=O)oc2cc(S(=O)(=O)N3CCCCC3)c(Cl)cc21`, for which the cytotoxicity at 70.5 h was 47.9%. With `Cn1c(=O)oc2ccc(S(=O)(=O)N3CCC(c4ccccc4)C3)cc21` (centres undefined), the cytotoxicity at 70.5 h stood at 28.3%. As for `O=C(NCc1ccccc1Cl)c1[nH]nc2c1CS(=O)(=O)CC2`, the cytotoxicity at 70.5 h was -5.21%. Regarding `CCn1ncc(Nc2[nH]cnc3nncc2-3)c1C`, the cytotoxicity at 70.5 h is -3.49%. Regarding `Cc1nc2[nH]cnc(NCCN3CCOCC3)c-2n1`, the cytotoxicity at 70.5 h was -1.72%. `COc1ccc(OC)c(C(C)Nc2ncnc3c2NC(=O)CN3)c1` (centres undefined): the cytotoxicity at 70.5 h is -18.2%. Consider `Cc1noc(C2CCN(C(=O)C3CCCO3)CC2)n1` (centres undefined), for which the cytotoxicity at 70.5 h is -9.25%.

In the case of `CCC(C)c1noc(C2CCN(C(=O)Cn3nc(C)cc3C)CC2)n1` (centres undefined), the cytotoxicity at 70.5 h is -5.55%. As to `CCC(C)c1noc(C2CCN(C(=O)c3ccccn3)CC2)n1` (centres undefined), the cytotoxicity at 70.5 h was -3.62%.

Take `CC(C)Cc1noc(C2CCCN(C(=O)CCc3cnn(C)c3)C2)n1` (centres undefined): the cytotoxicity at 70.5 h is -8.4%. Regarding `CNc1ncc2c(n1)CN(CCc1ccc(F)cc1)C2=O`, the cytotoxicity at 70.5 h was -10.4%.

Consider `CNc1ncc2c(n1)CN(C1CC(C)(C)NC(C)(C)C1)C2=O`, for which the cytotoxicity at 70.5 h is -12.6%. Consider `CC(c1ccc2c(c1)OCO2)N1Cc2nc(N(C)C)ncc2C1=O` (centres undefined), for which the cytotoxicity at 70.5 h is -0.989%. In the case of `CCn1cc(N2Cc3nc(N(C)C)ncc3C2=O)cn1`, the cytotoxicity at 70.5 h is -4.06%. Take `Cc1noc(C2CCN(C(=O)c3cccs3)CC2)n1`: the cytotoxicity at 70.5 h is -9.06%. As to `Cc1cc(C)n(CC(=O)N2CCC(c3nc(C(C)C)no3)CC2)n1`, the cytotoxicity at 70.5 h was -7.07%. `CC(C)Cc1noc(C2CCCCN2C(=O)CCc2cnn(C)c2)n1` (centres undefined): the cytotoxicity at 70.5 h was -7.69%. In the case of `Cc1nn(C)c(C)c1CN(C)CC1(O)CCCN(C)C1` (centres undefined), the cytotoxicity at 70.5 h is -19.1%. As for `Cc1cc(C)n(CCC(=O)N2CCCC(c3nc(C(C)C)no3)C2)n1` (centres undefined), the cytotoxicity at 70.5 h is -4.86%. For the compound `CCc1noc(C2CCCCN2C(=O)c2ccc(C)o2)n1` (centres undefined), the cytotoxicity at 70.5 h was 14%.

Consider `COc1ccc(N2Cc3nc(N)ncc3C2=O)cc1`, for which the cytotoxicity at 70.5 h is 9.83%. Regarding `CCc1noc(C2CCCCN2C(=O)c2cc(C)n(C)n2)n1` (centres undefined), the cytotoxicity at 70.5 h worked out at 16.6%. Then `Cc1cc(C(=O)N2CCCC(c3nc(C)no3)C2)on1` (centres undefined), with -10.6%; and `Cc1nn(C)c2cn(C(C)C(=O)NCc3ccncc3)nc12` (centres undefined), with -2.93%; and `Cc1cc(C)n(CCCNc2ncnc3c2NC(=O)CN3)n1`, with -8.3%.

Take `CCN1CCCC(O)(CN(C)Cc2ccc(C)o2)C1` (centres undefined): the cytotoxicity at 70.5 h is -10.6%. Then `CCn1nc(C)c2c1cnn2CC(=O)NC(C)c1cccc(OC)c1` (centres undefined), with -15.4%; and `CCn1nc(C)c2c1cnn2CC(=O)N1CCN(C)CC1`, with -1.92%; and `CCc1cc(OC)c(OC)cc1C(=O)Nc1cccnc1`, with 13%. On to `Cc1cccc2c1ccn2CCC(=O)O`, for which the cytotoxicity at 70.5 h was 3.02%. `Cc1ccc(CNc2cc3[nH]c(O)nc3cc2C)cc1`: the cytotoxicity at 70.5 h is -19.5%.

As for `CCc1noc(C2CCCCN2C(=O)c2cccnc2)n1` (centres undefined), the cytotoxicity at 70.5 h was -6.76%. Turning to `Cc1nn(C(C)C)c2cnn(CC(=O)N3CCN(C)CC3)c12`, the cytotoxicity at 70.5 h is -8.52%.

Take `Cc1nn(C(C)C)c2cnn(CC(=O)N3CCSCC3)c12`: the cytotoxicity at 70.5 h was -1.45%. In the case of `CCn1nccc1CN(C)C(=O)Cn1cc2c(n1)c(C)nn2CC`, the cytotoxicity at 70.5 h was -1.76%.

Regarding `Cc1nc2[nH]cnc(Nc3cc(C)n(C)n3)c-2n1`, the cytotoxicity at 70.5 h is -1.58%. Then `CCN1CCCC(O)(CNCc2ccccn2)C1` (centres undefined), with -8.08%; and `CCN1CCCC(O)(CNCc2ccncc2)C1` (centres undefined), with 14.1%.

In the case of `CN1CCN(c2nsc(-c3cccnc3)c2C#N)CC1`, the cytotoxicity at 70.5 h was -4.14%. Then `CC(C)n1cc(N2Cc3nc(N4CCOCC4)ncc3C2=O)cn1`, with 15.4%. Then `Cn1nc(C(=O)N2CCSCC2)cc1NC(=O)c1ccccc1`, with -1.31%; and `CCn1nc(C)c(CNC(=O)c2nnc3ccc(Cl)cc3n2)c1C`, with 0.121%. Turning to `O=C(NCC1CC1)c1nnc2ccc(Cl)cc2n1`, the cytotoxicity at 70.5 h was -13.3%. Then `O=C1c2cnc(N3CCOCC3)nc2CN1C1CCS(=O)(=O)C1` (centres undefined), with 5.93%; and `CC1CCN(c2ncc3c(n2)CN(c2ccc(F)cc2)C3=O)CC1`, with -2.02%; and `O=C1c2cnc(N3CCCC3)nc2CN1C1CCS(=O)(=O)C1` (centres undefined), with -2.78%. Then `CC(C)CN1Cc2nc(N3CCCC3)ncc2C1=O`, with 19.8%; and `CN1CCN(C(=O)c2cc(NC(=O)c3ccccc3)n(C)n2)CC1`, with -12.7%. Turning to `CCn1nc(C)c(NC(=O)c2cc(NC(=O)C(C)C)n(C)n2)c1C`, the cytotoxicity at 70.5 h is -5.54%.

In the case of `CC(C)C(=O)Nc1cc(C(=O)NC2CC(C)(C)NC(C)(C)C2)nn1C`, the cytotoxicity at 70.5 h was 14.5%. `CCn1nccc1CN(C)c1nc(N)nc2c1nc(C)n2C`: the cytotoxicity at 70.5 h is -3.81%. For the compound `Cc1nn(C)c2cn(C(C)C(=O)NCc3ccc(F)cc3)nc12` (centres undefined), the cytotoxicity at 70.5 h is -3.15%. Regarding `Cn1nc(C(=O)N2CCSCC2)cc1NC(=O)c1ccco1`, the cytotoxicity at 70.5 h is -5.7%.

On to `Cc1ccc2c(cnn2CCC(=O)NCc2csc(C)n2)c1`, for which the cytotoxicity at 70.5 h is -14.7%.

As for `O=c1ccc2c(n1CC1CCOCC1)CCN(Cc1ccoc1)CC2`, the cytotoxicity at 70.5 h is 49.3%.

For `c1cnc(NC2COC3(CCN(Cc4cc[nH]n4)CC3)C2)nc1` (centres undefined), the cytotoxicity at 70.5 h was -99.2%.

On to `COCCN1CCn2cc(CNC(=O)c3cnn(C)c3)nc2C1`, for which the cytotoxicity at 70.5 h was -38%.

On to `COCCC(=O)N1CCCC2(CCCN2Cc2ccccc2F)C1` (centres undefined), for which the cytotoxicity at 70.5 h is -107%. Then `Cc1nc(COC[C@@H]2CC[C@H]3[C@H](CCN3c3ccccn3)O2)cs1`, with -90.1%; and `c1cnc(NC2COC3(CCN(Cc4cccs4)CC3)C2)nc1` (centres undefined), with -97%. Take `CCCS(=O)(=O)N1CCC2(CN(c3ccccc3)C(=O)CN2C)C1` (centres undefined): the cytotoxicity at 70.5 h was -87.7%. Take `O=C1[C@H]2CN(c3ncccn3)C[C@H]2CN1CCN1CCCC1`: the cytotoxicity at 70.5 h was -47.2%. With `O=C(NCCCO)c1cc(-c2cc[nH]n2)n2ccccc12`, the cytotoxicity at 70.5 h is -102%. `CN(C)C(=O)COC[C@@H]1CC[C@H]2[C@H](CCN2c2ncccn2)O1`: the cytotoxicity at 70.5 h was -66.5%. As to `c1ccc(CN2CCc3c(CNc4nccs4)n[nH]c3C2)nc1`, the cytotoxicity at 70.5 h is -16.9%. For the compound `Cc1oncc1C(=O)N1C[C@H](OCc2ccccn2)[C@H]2OCCC[C@H]21`, the cytotoxicity at 70.5 h was -11.5%. With `CN(C)C(=O)CC1CC2(CCN(Cc3ccoc3)CC2)c2ccccc21` (centres undefined), the cytotoxicity at 70.5 h was -2.19%. `COCC(=O)N1C[C@@H](OCc2ccncc2)[C@@H]2OCCC[C@@H]21`: the cytotoxicity at 70.5 h was determined as 52.2%. Then `CC(C)C(=O)N1CCN(Cc2cnn(C)c2)CC2(CC(=O)N(C)C2)C1` (centres undefined), with -13.2%; and `CCOCC1CN(Cc2nccs2)Cc2nn(CC3CC3)cc21` (centres undefined), with -9.99%; and `Cc1noc(C)c1CN1CCc2c(CNc3nccs3)n[nH]c2C1`, with -12.5%. As to `O=C1COC2(CCN(S(=O)(=O)C3CC3)CC2)CN1c1cccnc1`, the cytotoxicity at 70.5 h came to 40.1%. Then `CCN1CCn2cc(CNC(=O)c3cnn(C)c3)nc2C1`, with -110%; and `c1cncc(OC[C@]23COC[C@H]2CN(Cc2ccsc2)C3)c1`, with -129%. For `c1cncc(OC[C@]23COC[C@H]2CN(Cc2nccs2)C3)c1`, the cytotoxicity at 70.5 h was -120%. As for `Cn1cc(C(=O)NCc2cn3c(n2)CN(CC2CCCC2)CC3)cn1`, the cytotoxicity at 70.5 h was -112%. Then `CCN1CCC2(CC1)CC(NCc1cccs1)c1ccccc1O2` (centres undefined), with -5.71%. Take `c1nc(CN2CCC3(CC2)COCCN3CC2CC2)c[nH]1`: the cytotoxicity at 70.5 h is -18.8%. For `Cn1ncc2c1C(COCC1CC1)N(Cc1ccoc1)CC2` (centres undefined), the cytotoxicity at 70.5 h is -19.6%. For `Cc1ccc(CN(CCCN2CCOCC2)Cc2cnc(C)n2C)o1`, the cytotoxicity at 70.5 h was found to be 12.4%.
